As usually defined, the IC50 is the concentration that gives 50% inhibition.

Where only a bound is given, the exact number is not on record here.

These results are taken from US7238813B2, “Chemical compounds” (Smithkline Beecham Corporation, priority 2000, dated 2007).

The target of assay [1] is T1, TIE2 intracellular domain/c-fms extracellular domain (TIE2/c-fms) chimeric protein expressing mouse 3T3 cells (Homo sapiens, UniProt Q02763).
T1 construct: a TIE2 intracellular domain/c-fms extracellular domain (TIE2/c-fms) chimeric protein; expressed in transfected cells; host or cells: mouse 3T3 cells
Briefly: TIE-2 autophosphorylation assay (TIE2-C), ELISA. Particulars: TIE2/c-fms 3T3 cells, MCSF activation. The class given is cell-based. Summed up:
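Mouse 3T3 cells expressing TIE2 intracellular/c-fms extracellular chimera treated with compound for 1 hr in serum-free DMEM (0.1% DMSO), then stimulated with MCSF. Lysates captured on anti-c-fms plates overnight at 4 °C; phosphotyrosine detected by biotin-PT66/HRP-streptavidin, OD450. IC50 by nonlinear regression, reported as pIC50.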
In general terms: In an ELISA, binding on a coated surface is turned into a signal by an enzyme label.

Assay [2] concerns the target T2, GST-TIE2 (intracellular domains of human TIE2) (Homo sapiens, UniProt Q02763).
T2 construct: made in house
Nature of the assay: TIE-2 enzyme assay (TIE2-E), LANCE method. The class given is biochemical. Particulars: 80 uM ATP. Summed up: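 Baculovirus GST-TIE2 (human intracellular domain, aa 762–1104) preactivated 30 min at RT with 2 mM ATP, then reacted 30 min at RT with 1 μM D1-15 peptide, 80 uM ATP, 10 mM MgCl2, pH 7.4, 2.4% DMSO. EDTA-stopped; LANCE Eu-anti-pTyr/streptavidin-APC read-out. IC50 by nonlinear regression, reported as pIC50.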
(In general: Time-resolved FRET reads energy transfer from a long-lived donor to a nearby acceptor.)

For assay [3], the system named is Human umbilical cord endothelial cells (HUVEC). Nature of the assay: VEGF-driven cellular proliferation assay: BrdU incorporation assay (VEGF-C). Details: key to VEGF-C: + = pIC50 of 5.0–6.0; ++ = pIC50 of 6.0–7.0; +++ = pIC50 of > 7.0; − = a negative or inconclusive result. It counts as cell-based. Particulars: for IC50: Homo sapiens. The protocol: VFGF-driven Cellular Proliferation Assay: BrdU Incorporation Assay (VEGF-C)
Human umbilical cord endothelial cells (HUVEC, Clonetics, CC2519) were passaged in Type I collagen-coated 100-mm petridishes in EGM-MV medium (Clonetics, CC3125) at 37° C. in a humidified 5% CO2, 95% air incubator. (HUVEC passaged more than 6 times in vitro were discarded and not subjected to assaying.) The cells were harvested using trypsin/EDTA, counted using a haemocytometer and plated at 5000 cells/well in a Type I-collagen coated 96-well plate (Becton Dickinson, 354407) in M199 medium (Gibco BRL, 12340-030) containing 5% FBS (Hyclone, A 1115-L) and gentamicin (at 50 μg/ml, Gibco BRL). After incubation overnight at 37° C., the media were replaced with 100 μl of M199 serum-free medium containing compounds at various concentrations with 0.6% DMSO and gentamicin. The compounds were diluted in serum-free M199 medium from 10 mM stock solutions prepared in 100% DMSO. After a 30 min incubation at 37° C., the cells were fed with 100 μl of serum-free M199 medium containing gentamicin, 0.2% culture-grade bovine serum albumin (BSA, Sigma A1993) and 20 ng/ml of VEGF (R&D systems, 293-VE) or 0.6 ng/ml of basic FGF (R&D systems, 233-FB), and cultured at 37° C. for another 24 h. The cells were pulsed with bromodeoxyuridine (BrdU at 10 μM in serum-free M199) at 37° C. for an additional 24 h. The incorporation of BrdU into the proliferating HUVEC were analyzed using BrdU Cell Proliferation ELISA (Roche Molecular Biochemicals, 1647229) according to the manufacturer's protocols. The optical density at 450 nm was measured with a multilabel counter (ARVO SX, Wallac). The percent inhibition of cell growth was calculated relative to blank control wells. The concentration of test compound that inhibits 50% of cell growth (IC50) was interpolated using nonlinear regression (Levernberg-Marquardt) and the equation, y=Vmax (1−x/(K+x))+Y2, where “K” was equal to the IC50. The IC50, values were converted to pIC50 values, i.e., −log IC50 in Molar concentration.

In the next assay the target is T3, GST-VEGFR2 (Homo sapiens, UniProt P35968).
T3 construct: GST-VEGFR2, baculovirus expressed recombinant constructs of the intracellular domains of human TIE2 tagged by GST; made in house
Briefly: VEGF-R2 enzyme assay (VEGF-E), LANCE method. To be noted: 75 μM ATP. It counts as biochemical.

T1 sequence (Q02763 770-1124 limits assumed, change not shown): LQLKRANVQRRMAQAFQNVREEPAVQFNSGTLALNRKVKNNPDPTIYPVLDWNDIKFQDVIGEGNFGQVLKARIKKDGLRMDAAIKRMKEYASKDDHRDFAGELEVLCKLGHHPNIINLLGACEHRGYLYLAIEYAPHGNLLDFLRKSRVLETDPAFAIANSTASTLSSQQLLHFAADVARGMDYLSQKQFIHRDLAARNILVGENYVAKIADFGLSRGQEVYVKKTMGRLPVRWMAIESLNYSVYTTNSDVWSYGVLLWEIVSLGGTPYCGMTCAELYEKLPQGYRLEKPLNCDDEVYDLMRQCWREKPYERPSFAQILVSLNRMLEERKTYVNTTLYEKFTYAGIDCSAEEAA
T3 sequence (P35968 786-1356 limits assumed): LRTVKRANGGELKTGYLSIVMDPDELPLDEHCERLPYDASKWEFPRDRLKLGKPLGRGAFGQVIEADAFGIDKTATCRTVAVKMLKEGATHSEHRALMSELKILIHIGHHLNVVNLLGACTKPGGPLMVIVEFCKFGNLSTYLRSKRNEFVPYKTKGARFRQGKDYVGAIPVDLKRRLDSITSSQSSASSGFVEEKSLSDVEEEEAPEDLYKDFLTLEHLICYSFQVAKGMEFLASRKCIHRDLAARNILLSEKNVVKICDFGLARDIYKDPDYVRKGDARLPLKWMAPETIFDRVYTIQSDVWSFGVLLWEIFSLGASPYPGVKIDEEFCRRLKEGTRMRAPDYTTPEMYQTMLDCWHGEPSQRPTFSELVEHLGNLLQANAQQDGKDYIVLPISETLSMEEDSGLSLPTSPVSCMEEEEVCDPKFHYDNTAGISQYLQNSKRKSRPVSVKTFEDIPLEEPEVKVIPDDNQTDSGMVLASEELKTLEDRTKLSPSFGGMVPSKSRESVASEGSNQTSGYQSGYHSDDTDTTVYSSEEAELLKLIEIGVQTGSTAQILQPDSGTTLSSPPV
T2 sequence (Q02763 762-1104): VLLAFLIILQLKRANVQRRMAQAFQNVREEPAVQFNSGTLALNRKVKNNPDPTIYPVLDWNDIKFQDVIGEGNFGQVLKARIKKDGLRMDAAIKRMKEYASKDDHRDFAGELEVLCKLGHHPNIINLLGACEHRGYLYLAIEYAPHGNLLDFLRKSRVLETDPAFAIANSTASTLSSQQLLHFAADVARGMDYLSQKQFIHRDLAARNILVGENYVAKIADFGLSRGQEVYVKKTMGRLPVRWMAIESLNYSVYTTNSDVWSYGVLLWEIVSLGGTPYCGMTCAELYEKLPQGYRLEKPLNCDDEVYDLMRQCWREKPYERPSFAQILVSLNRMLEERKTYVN

On to `Nc1nc2ccc(Oc3ccc(NC(=O)Nc4cc(C(F)(F)F)ccc4F)cc3)cc2[nH]1` [Example 22, 2-Amino-5-(4-((2-fluoro-5-(trifluoromethyl)phenyl)aminocarbonylamino)phenoxy)-1H-benzimidazole.], for which the IC50 in assay [1] was 1000 to 10000 nM; in assay [2] it was less than 100 nM; in assay [3] it was 1000 to 10000 nM; against GST-VEGFR2, less than 100 nM.
For the molecule `O=C(Nc1ccc(Oc2ccc3[nH]c(NC(=O)C4CCCO4)nc3c2)cc1)Nc1cc(C(F)(F)F)ccc1F` (centres unmarked) [Example 94], the IC50 was less than 100 nM in assay [1], less than 100 nM in assay [2], 1000 to 10000 nM in assay [3] and less than 100 nM at GST-VEGFR2.
For `COC(=O)Nc1nc2cc(Oc3ccc(NC(=O)Nc4cccc(C#N)c4)cc3)ccc2[nH]1` [Example 49], the IC50 was 100 to 1000 nM in assay [1], 100 to 1000 nM in assay [2] and less than 100 nM against GST-VEGFR2. For the same molecule, the VEGF-C entry in assay [3] was “−”.
For the molecule `CN(C)CCOC(=O)Nc1nc2cc(Oc3ccc(NC(=O)Nc4cc(C(F)(F)F)ccc4F)cc3)ccc2[nH]1` [Example 80, 2-(Dimethylamino)ethyl N-(5-(4-((2-fluoro-5-(trifluoromethyl)phenyl)aminocarbonylamino)phenoxy)-1H-benzimidazol-2-yl)carbamate], the IC50 (in assay [1]; in assay [2]; in assay [3]; against GST-VEGFR2) was less than 100 nM each time.
As for `COC(=O)Nc1nc2cc(Oc3ccc(NC(=O)Nc4cc(F)cc(C(F)(F)F)c4)cc3)ccc2[nH]1` [Example 50, Methyl N-(5-(4-((3-fluoro-5-(trifluoromethyl)phenyl)aminocarbonylamino)phenoxy)-1H-benzimidazol-2-yl)carbamate], the IC50 was less than 100 nM in assay [1], less than 100 nM in assay [2], 100 to 1000 nM in assay [3] and less than 100 nM on GST-VEGFR2.
On to `CC(=O)NCC(=O)Nc1nc2cc(Oc3ccc(NC(=O)Nc4cc(C(F)(F)F)ccc4F)cc3)ccc2[nH]1` [Example 29, N-(5-(4-((2-Fluoro-5-(trifluoromethyl)phenyl)aminocarbonylamino)phenoxy)-1H-benzimidazol-2-yl)-2-(N-acetylamino)acetamide], for which the IC50 in assay [1] was less than 100 nM; in assay [2] it was less than 100 nM; in assay [3], 100 to 1000 nM; against GST-VEGFR2 it was less than 100 nM.
Regarding `COC(=O)Nc1nc2cc(Oc3ccc(NC(=O)Nc4cc([N+](=O)[O-])ccc4F)cc3)ccc2[nH]1` [Example 46, Methyl N-(5-(4-((2-fluoro-5-nitrophenyl)aminocarbonylamino)phenoxy)-1H-benzimidazol-2-yl)carbamate], the IC50 (in assay [1]; in assay [2]; on GST-VEGFR2) was less than 100 nM in each case. For the same molecule, the VEGF-C result in assay [3] is recorded as “−”.
Take `COC(=O)Nc1nc2ccc(Oc3ccc(NC(=O)Nc4cc(C(F)(F)F)ccc4F)cc3)cc2n1CCN1CCOCC1` [Example 71, Methyl N-(6-(4-((2-fluoro-5-(trifluoromethyl)phenyl)aminocarbonylamino)phenoxy)-1-(2-(4-morpholino)ethyl)-1H-benzimidazol-2-yl)carbamate]: the IC50 in assay [1] is 100 to 1000 nM; in assay [2], less than 100 nM; in assay [3], 1000 to 10000 nM; against GST-VEGFR2 it was less than 100 nM.
Take `CN(C)CCCC(=O)Nc1nc2cc(Oc3ccc(NC(=O)Nc4cc(C(F)(F)F)ccc4F)cc3)ccc2[nH]1` [Example 92, N-(5-(4-((2-Fluoro-5-(trifluoromethyl)phenyl)aminocarbonylamino)phenoxy)-1H-benzimidazol-2-yl)-4-(dimethylamino)butylamide]: the IC50 (in assay [1]; in assay [2]; in assay [3]; on GST-VEGFR2) was less than 100 nM in each case.
As to `COC(=O)Nc1nc2cc(Oc3ccc(NC(=O)Nc4cccc(SC)c4)cc3)ccc2[nH]1` [Example 48], the IC50 (in assay [1]; in assay [2]; against GST-VEGFR2) was less than 100 nM in each case. Further, in assay [3], the VEGF-C result was “−”.
Regarding `O=C(Cn1nnc(N2CCCC2)n1)Nc1nc2cc(Oc3ccc(NC(=O)Nc4cc(C(F)(F)F)ccc4F)cc3)ccc2[nH]1` [Example 96, N-(5-(4-((2-Fluoro-5-(trifluoromethyl)phenyl)aminocarbonylamino)phenoxy)-1H-benzimidazol-2-yl)(5-(1-pyrrolidino)tetrazol-2-yl)acetamide], the IC50 in assay [1] is less than 100 nM; in assay [2], less than 100 nM; in assay [3], 100 to 1000 nM; on GST-VEGFR2, less than 100 nM.
Consider `COC(=O)Nc1nc2cc(Oc3ccc(NC(=O)Nc4cc(Cl)ccc4Cl)cc3)ccc2[nH]1` [Example 45, Methyl N-(5-(4-((2,5-dichlorophenyl)aminocarbonylamino)phenoxy)-1H-benzimidazol-2-yl)carbamate], for which the IC50 (in assay [1]; in assay [2]; on GST-VEGFR2) was less than 100 nM throughout. Further, the VEGF-C result in assay [3] is on record as “−”.
Turning to `COC(=O)Nc1nc2ccc(Oc3ccc(NC(=O)Nc4cc(C(F)(F)F)ccc4F)cc3)cc2o1` [Example 115, Methyl N-(6-(4-((2-fluoro-5-(trifluoromethyl)phenyl)aminocarbonylamino)phenoxy)benzoxazol-2-yl)carbamate], the IC50 (in assay [1]; in assay [2]; in assay [3]; against GST-VEGFR2) was less than 100 nM in each case.
Regarding `COC(=O)Nc1nc2cc(Sc3ccc(NC(=O)Nc4cc(C(F)(F)F)ccc4Cl)cc3)ccc2[nH]1.Cl` [Example 51, Methyl N-(5-(4-((2-chloro-5-(trifluoromethyl)phenyl)aminocarbonylamino)phenylthio)-1H-benzimidazol-2-yl)carbamate hydrochloride], the IC50 (in assay [1]; in assay [2]; at GST-VEGFR2) was less than 100 nM each time. Moreover, in assay [3], the VEGF-C entry is reported as “−”.
On to `CCOC(=O)Nc1nc2cc(Oc3ccc(NC(=O)Nc4cc(C(F)(F)F)ccc4F)cc3)ccc2[nH]1` [Example 17, Ethyl N-(5-(4-((2-fluoro-5-(trifluoromethyl)phenyl)aminocarbonylamino)phenoxy)-1H-benzimidazol-2-yl)carbamate], for which the IC50 (in assay [1]; in assay [2]; in assay [3]; against GST-VEGFR2) was less than 100 nM each time.
As to `COC(=O)Nc1nc2ccc(Oc3ccc(NC(=O)Nc4cc(Cl)ccc4Cl)cc3)nc2[nH]1.Cl` [Example 74, Methyl N-(5-(4-((2,5-dichlorophenyl)aminocarbonylamino)phenoxy)-3,4-diaza-1H-indole-2-yl)carbamate dihydrochloride], the IC50 (in assay [1]; in assay [2]; at GST-VEGFR2) was less than 100 nM throughout. Further, the VEGF-C entry in assay [3] is listed as “−”.
Regarding `COC(=O)Nc1nc2ccc(Sc3ccc(NC(=O)Nc4cc(OC)cc(OC)c4)cc3)cc2[nH]1` [Example 5, Methyl N-(5-(4-((3,5-dimethoxyphenyl)aminocarbonylamino)phenylthio)-1H-benzimidazol-2-yl)carbamate], the half-inhibitory concentration (IC50) was less than 100 nM in assay [1], 100 to 1000 nM in assay [2] and 1000 to 10000 nM against GST-VEGFR2. Further, the VEGF-C entry in assay [3] was “−”.
